Experimental data from ChEMBL document CHEMBL1201862, “PubChem BioAssay data set” (2004).
The source made the active and inactive calls.

Experiments:
Cytochrome P450 2C9 = Cytochrome P450 2C9 (Homo sapiens, UniProt P11712)
[1] = luciferase reporter signal suppression in cells – H4 neuroglioma cells, luminescence, dose response (AID 1990); format: functional, cell-based
cells [2] = format: functional, cell-based
[3] = Luminescence Cell-Based Dose Response HTS to Identify Inhibitors of 5'UTR Stem-Loop Driven Prion Protein mRNA Translation in H4 Neuroglioblastoma Cells. [Related pubchem assays: 1827 (Project Summary), 1813 (Primary HTS)]; format: functional
[4] = alpha-synuclein stem-loop luciferase translation blockers – H4 neuroglioma cells, luminescence, confirmation (AID 1988); format: functional, cell-based
cells [5] = format: functional, cell-based; remark: listed apart in the source
[6] = Luminescence Cell-Based Dose Retest to Confirm Inhibitors of Cancer Stem Cells. [Related pubchem assays (depositor defined):AID2717, AID2721]; format: functional; conditions: Homo sapiens
INS1 = experiment: INS-1E survival protection against cytokine death – cell-based, luminescence, retest, dose response (AID 449756); format: functional; conditions: Rattus norvegicus;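 note: cell death triggered by IL-1 beta plus TNF-alpha plus IFN-gamma mixture; protective hits raise ATP signal compared with cytokine alone wells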
[7] = reduction of Shn3 3'UTR-driven luciferase in osteoblasts – cell-based, Clone20 osteoblasts, firefly luciferase, cherry-picked, dose response (AID 624132); format: functional;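 note: firefly luciferase luminescence from reporter carrying the Shn3 3'UTR in osteoblasts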
[8] = loss of viability in HepG2 cells – cell-based, CellTiter-Glo, cherry-picked, cytotoxicity control for Shn3 inhibitor project, dose response (AID 624134); format: functional
[9] = non-specific 3'UTR reporter inhibition in Clone20-Shn3RL – cell-based, Renilla luciferase, cherry-picked, counter-screen for Shn3 inhibitor project, dose response (AID 624133); format: functional
[10] = NIH-3T3 fibroblast cytotoxicity, dose response, cytotoxicity control, cell-based, fluorescence, Alamar Blue, secondary assay (AID 2327); format: functional;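 note: NIH-3T3 mouse fibroblasts cultured with fluconazole at 8 µg/mL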
[11] = fluconazole-exposed Candida albicans growth modulators – fluorescence, retest, confirmation (AID 2467); format: functional, cell-based
Cytochrome P450 2C19 = Cytochrome P450 2C19 (Homo sapiens, UniProt P33261); experiment: Cytochrome panel assay with activity outcomes. Panel member name: p450-cyp2c19 Compounds with AC50 equal or less than 10 uM are considered active; format: functional
Vero = experiment: cells; format: functional; conditions: Chlorocebus sabaeus
Cytochrome P450 2D6 = Cytochrome P450 2D6 (Homo sapiens, UniProt P10635);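 note: CYP2D6 member of a cytochrome P450 panel assay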
[12] = molecular target: T1, Short transient receptor potential channel 4 (Mus musculus, UniProt Q9QUQ5); experiment: calcium entry via TRPC4 opening agents – cell-based, HEK293 TRPC4/mu-opioid, Fluo-4 calcium, dose response (AID 434937); format: functional
T1 sequence (Q9QUQ5 whole entry): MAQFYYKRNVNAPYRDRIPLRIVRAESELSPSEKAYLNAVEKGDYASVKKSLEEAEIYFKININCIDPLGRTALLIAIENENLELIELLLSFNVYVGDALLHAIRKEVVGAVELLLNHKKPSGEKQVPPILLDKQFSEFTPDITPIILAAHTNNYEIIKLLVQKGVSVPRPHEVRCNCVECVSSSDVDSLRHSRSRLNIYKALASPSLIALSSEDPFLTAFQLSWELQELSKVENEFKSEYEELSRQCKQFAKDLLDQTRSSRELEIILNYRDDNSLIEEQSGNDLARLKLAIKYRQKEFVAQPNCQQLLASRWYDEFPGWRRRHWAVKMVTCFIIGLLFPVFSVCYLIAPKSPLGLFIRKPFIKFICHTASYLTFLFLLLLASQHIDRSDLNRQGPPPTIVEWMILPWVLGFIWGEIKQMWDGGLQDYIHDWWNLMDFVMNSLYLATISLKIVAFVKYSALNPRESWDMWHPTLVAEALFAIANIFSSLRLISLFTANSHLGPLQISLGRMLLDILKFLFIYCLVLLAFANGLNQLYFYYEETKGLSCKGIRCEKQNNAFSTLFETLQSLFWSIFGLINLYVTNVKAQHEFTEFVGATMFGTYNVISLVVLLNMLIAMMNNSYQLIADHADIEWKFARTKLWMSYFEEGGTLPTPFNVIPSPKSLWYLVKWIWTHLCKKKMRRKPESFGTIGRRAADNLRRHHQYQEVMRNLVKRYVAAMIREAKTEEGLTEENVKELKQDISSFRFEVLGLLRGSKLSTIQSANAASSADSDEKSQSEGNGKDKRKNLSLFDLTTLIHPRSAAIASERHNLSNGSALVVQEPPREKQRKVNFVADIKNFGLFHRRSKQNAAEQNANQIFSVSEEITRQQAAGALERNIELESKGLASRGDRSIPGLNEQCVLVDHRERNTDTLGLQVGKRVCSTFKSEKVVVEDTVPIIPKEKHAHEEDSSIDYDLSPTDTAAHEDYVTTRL

[13] = molecular target: Heat shock protein HSP 90-alpha (Homo sapiens, UniProt P07900); format: functional, organism-based
[14] = molecular target: T2, Polyadenylate-binding protein 1 (Homo sapiens, UniProt P11940); experiment: MLLE binding blockers, Cy5 peptide tracer – biochemical, fluorescence polarization, Cy5-PAM2 peptide, secondary, miRNA deadenylation inhibitor project, dose response (AID 602260); format: functional; conditions: read-out: IC50_Mean
[15] = molecular target: T2, Polyadenylate-binding protein 1; experiment: MLLE domain peptide-binding blockers, IC50 – biochemical, fluorescence polarization, FITC-PAM2 peptide, dose response (AID 602259); format: functional; conditions: read-out: IC50_Mean
[16] = Trypanosoma cruzi growth suppression in host cells – NIH3T3 host cells, beta-gal luminescence, confirmation (AID 2044); format: functional, cell-based;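 note: intracellular parasites grown in NIH/3T3 mouse fibroblasts as host cells; luminescent beta-galactosidase reporter signal from transgenic T. cruzi replicating inside host cells; inhibitors lower the luminescence signal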
[17] = NIH3T3 cell viability loss – ATP luminescence, mouse fibroblasts, counter-screen, dose response (AID 2010); format: functional, cell-based;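 note: cells exposed to compound for about 90 hours before reading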
[18] = test system: Streptococcus sp. 'group A'; experiment: Streptococcus pyogenes SK(-)GAS viability under kanamycin – luminescence, BacTiterGlo, confirmation, counter-screen for streptokinase expression inhibitor project, dose response (AID 1900); format: functional, organism-based
H4 = experiment: Luminescence Cell-Based Dose Response HTS to Identify Activators of 5'UTR Stem-Loop Driven Prion Protein mRNA Translation in H4 Neuroglioblastoma Cells. [Related pubchem assays: 1829 (Project Summary), 1814 (Primary HTS)]; format: functional; conditions: Homo sapiens
Streptokinase A = molecular target: T3, Streptokinase A (Streptococcus pyogenes serotype M1, UniProt P10520); experiment: viability-normalized secreted streptokinase activity reduction – plasminogen activation absorbance, OD405, dose response (AID 1914); format: functional, Streptococcus pyogenes M1 GAS;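 note: secreted streptokinase activity via plasminogen activation per viability signal from cell pellet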
T3 sequence (P10520 whole entry): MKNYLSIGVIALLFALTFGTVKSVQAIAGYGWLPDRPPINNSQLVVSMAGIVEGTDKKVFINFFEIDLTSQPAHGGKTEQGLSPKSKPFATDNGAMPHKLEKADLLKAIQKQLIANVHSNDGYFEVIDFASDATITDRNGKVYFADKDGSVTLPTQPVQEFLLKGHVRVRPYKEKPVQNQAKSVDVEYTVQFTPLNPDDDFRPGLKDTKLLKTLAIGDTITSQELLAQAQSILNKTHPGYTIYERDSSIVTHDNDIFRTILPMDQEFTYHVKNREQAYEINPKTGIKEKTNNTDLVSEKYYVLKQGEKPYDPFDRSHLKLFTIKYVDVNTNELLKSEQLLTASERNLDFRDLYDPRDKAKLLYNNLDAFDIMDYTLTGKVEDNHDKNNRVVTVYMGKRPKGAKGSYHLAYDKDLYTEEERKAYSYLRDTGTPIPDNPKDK

Streptococcus = experiment: GAS UMAA2166 growth inhibition – luminescence, BacTiterGlo, counter-screen for streptokinase expression inhibitor project, dose response (AID 1915); format: functional, organism-based;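 note: potency for reduction of bacterial viability or growth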
Cytochrome P450 3A4 = Cytochrome P450 3A4 (Homo sapiens, UniProt P08684);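 note: CYP3A4 tested as one member of a cytochrome P450 panel screen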
P388/ADR = experiment: cells; format: functional; conditions: Mus musculus
SN12K1 = experiment: cells; format: functional; conditions: Homo sapiens
P388 = experiment: cells; format: functional; conditions: Mus musculus
BJ [19] = experiment: BJ-TERT fibroblast viability loss – cell-based, RAS-independent, luminescence, dose response (AID 1933); format: functional; conditions: Homo sapiens
BJ [20] = experiment: cells; format: functional, cell-based; conditions: Homo sapiens
BJ [21] = experiment: BJ-TERT-LT-ST fibroblast viability loss – cell-based, RAS-independent, luminescence, dose response (AID 1935); format: functional; conditions: Homo sapiens;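 note: BJ fibroblasts immortalized with TERT plus LT and ST oncogenes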
[22] = DRD fibroblast viability loss – cell-based, non-viral oncogenic, luminescence, dose response (AID 1934); format: functional; conditions: Homo sapiens

Cytochrome P450 2C9, sequence (P11712 whole entry): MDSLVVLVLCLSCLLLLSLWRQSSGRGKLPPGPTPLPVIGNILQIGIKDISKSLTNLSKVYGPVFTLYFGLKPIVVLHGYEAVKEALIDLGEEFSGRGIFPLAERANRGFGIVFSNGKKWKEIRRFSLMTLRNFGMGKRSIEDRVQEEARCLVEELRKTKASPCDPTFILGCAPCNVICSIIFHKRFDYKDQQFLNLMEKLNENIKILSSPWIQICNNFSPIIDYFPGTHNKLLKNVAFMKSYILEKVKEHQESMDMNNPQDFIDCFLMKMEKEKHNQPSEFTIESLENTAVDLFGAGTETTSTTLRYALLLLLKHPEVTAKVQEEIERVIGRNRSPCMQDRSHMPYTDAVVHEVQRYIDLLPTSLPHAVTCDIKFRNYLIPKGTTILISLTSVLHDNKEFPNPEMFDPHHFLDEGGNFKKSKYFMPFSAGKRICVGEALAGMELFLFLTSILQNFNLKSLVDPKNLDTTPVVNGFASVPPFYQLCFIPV
Cytochrome P450 2D6, sequence (P10635 whole entry): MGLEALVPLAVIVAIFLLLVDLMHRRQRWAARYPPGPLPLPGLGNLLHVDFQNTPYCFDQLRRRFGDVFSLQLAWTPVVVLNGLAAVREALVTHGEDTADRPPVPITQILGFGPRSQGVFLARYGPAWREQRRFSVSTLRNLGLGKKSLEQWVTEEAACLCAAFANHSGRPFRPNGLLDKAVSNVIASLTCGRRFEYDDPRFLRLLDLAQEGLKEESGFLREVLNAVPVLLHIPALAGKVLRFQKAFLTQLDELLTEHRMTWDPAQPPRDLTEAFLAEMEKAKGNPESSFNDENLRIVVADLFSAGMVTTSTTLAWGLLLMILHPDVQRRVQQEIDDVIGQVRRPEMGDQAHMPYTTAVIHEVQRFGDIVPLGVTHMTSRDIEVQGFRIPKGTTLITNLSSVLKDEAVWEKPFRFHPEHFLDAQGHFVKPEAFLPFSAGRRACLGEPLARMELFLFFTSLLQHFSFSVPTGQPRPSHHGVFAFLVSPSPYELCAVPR
T2 sequence (P11940 whole entry, the tested form may be a part): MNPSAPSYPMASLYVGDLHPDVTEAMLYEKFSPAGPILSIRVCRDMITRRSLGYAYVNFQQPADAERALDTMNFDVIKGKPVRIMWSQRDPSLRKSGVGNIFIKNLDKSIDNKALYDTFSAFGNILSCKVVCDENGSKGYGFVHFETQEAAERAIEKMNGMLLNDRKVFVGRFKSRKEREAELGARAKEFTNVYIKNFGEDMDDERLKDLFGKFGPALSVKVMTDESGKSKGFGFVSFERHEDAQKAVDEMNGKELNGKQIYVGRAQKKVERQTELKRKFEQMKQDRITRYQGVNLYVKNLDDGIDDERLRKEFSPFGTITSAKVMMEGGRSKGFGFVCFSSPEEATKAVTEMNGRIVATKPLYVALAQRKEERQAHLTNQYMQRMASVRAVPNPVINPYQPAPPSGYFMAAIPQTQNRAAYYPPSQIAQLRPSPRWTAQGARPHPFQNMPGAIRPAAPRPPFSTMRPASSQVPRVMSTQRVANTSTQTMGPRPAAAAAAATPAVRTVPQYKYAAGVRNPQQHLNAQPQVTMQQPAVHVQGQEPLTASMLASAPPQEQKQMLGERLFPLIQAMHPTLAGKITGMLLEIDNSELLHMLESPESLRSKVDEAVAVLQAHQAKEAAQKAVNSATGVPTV
Cytochrome P450 2C19, sequence (P33261 whole entry): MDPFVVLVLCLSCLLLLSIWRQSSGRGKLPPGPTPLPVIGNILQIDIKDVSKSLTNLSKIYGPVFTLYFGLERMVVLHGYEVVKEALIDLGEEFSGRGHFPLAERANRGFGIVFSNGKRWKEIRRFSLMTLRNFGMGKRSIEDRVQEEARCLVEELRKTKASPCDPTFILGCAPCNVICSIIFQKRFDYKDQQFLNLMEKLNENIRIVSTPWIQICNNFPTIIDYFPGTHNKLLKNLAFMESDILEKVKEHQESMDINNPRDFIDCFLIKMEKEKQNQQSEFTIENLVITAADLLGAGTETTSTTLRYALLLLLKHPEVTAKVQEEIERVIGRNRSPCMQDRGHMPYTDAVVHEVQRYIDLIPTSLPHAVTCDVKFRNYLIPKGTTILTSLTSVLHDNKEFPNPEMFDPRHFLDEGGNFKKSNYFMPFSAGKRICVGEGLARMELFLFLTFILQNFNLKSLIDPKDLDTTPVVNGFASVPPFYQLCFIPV
Cytochrome P450 3A4, sequence (P08684 whole entry): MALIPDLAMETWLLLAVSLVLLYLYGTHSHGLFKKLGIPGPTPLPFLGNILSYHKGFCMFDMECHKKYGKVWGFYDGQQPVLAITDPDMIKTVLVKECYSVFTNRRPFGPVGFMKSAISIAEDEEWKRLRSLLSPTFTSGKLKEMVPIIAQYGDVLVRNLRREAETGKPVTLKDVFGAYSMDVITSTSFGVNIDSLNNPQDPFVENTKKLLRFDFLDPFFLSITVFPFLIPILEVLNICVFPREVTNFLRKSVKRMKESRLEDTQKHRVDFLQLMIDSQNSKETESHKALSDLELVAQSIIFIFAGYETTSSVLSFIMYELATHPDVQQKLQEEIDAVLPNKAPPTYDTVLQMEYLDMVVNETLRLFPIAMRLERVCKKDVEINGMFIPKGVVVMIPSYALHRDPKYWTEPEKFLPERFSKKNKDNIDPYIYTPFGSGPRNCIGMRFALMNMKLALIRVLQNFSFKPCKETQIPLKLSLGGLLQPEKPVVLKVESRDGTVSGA

Structure (SMILES): CS(=O)(=O)c1ccc(Cn2c3c(c4cc(F)cc(F)c42)CCC[C@H]3CC(=O)O)cc1
- AC50 (Cytochrome P450 2C9): inconclusive

Structure (SMILES): CCOC(=O)c1cnc(-n2nc(C)cc2C)nc1NNc1nc(-c2ccccc2)cc(-c2ccccc2)n1
- EC50 [1]: 8.48 µM (active)
- EC50 (cells [2]): > 350 µM (not active)
- EC50 [3]: 12.6 µM (active)
- EC50 [4]: 8.83 µM (active)
- EC50 (cells [5]): > 350 µM (not active)
- AC50 [6]: 1.88 µM (active)
- AC50 (INS1): 2.69 µM (active)
- AC50 [7]: 3.84 µM (active)
- AC50 [8]: 48.5 µM (active)
- AC50 [9]: 7.39 µM (active)

Structure (SMILES): c1ccc(-c2ccc3c(c2)c2c4n3CCN=C4CCC2)cc1
- EC50 [10]: 50.1 µM (active)
- EC50 [11]: > 38 µM (not active)
- AC50 (Cytochrome P450 2C19; read-out: AC50): 31.6 µM (inconclusive)
- CC50 (Vero): 23.6 µM (active)

Structure (SMILES): COC(=O)CN1CN(c2ccccc2)C2(CCN(Cc3ccc4ccccc4c3)CC2)C1=O
- AC50 (Cytochrome P450 2D6): 20 µM (inconclusive)
- AC50 (Cytochrome P450 2C9): inconclusive

Structure (SMILES): CCOC(=O)C1(CCc2ccccc2)CCN(Cc2csc(C(C)=O)c2)CC1
- EC50 [12]: 0.841 µM (active)

Structure (SMILES): Nc1nc(N)c2nc(CNc3ccc(C(=O)N[C@H](CCC(=O)O)C(=O)O)cc3)cnc2n1
- AC50 (Cytochrome P450 2C9): inconclusive

Structure (SMILES): Cc1cc2cc(CNC(=O)c3ccc(C)c([N+](=O)[O-])c3)ccc2[nH]1
- AC50 [13]: 11 µM (active)
- IC50 [14]: > 66 µM (inactive)
- IC50 [15]: > 66 µM (inactive)

Structure (SMILES): Cc1ccc(C)c(OCCCCn2ccnc2)c1
- EC50 [16]: 2.04 µM (active)
- EC50 [17]: > 60 µM (not active)
- EC50 [12]: 4.73 µM (active)

Structure (SMILES): CCCC1COC(Cn2cncn2)(c2ccc(C)cc2)O1 (stereo not drawn)
- AC50 [13]: 0.73 µM (active)

Structure (SMILES): CCCN(CCC)CCCNc1ccc2nnc(-c3ccc(F)cc3)n2n1
- EC50 [12]: 0.596 µM (active)

Structure (SMILES): CC(C)c1ccc(-c2cc(C(=O)N3N=C(C(F)F)CC3(O)C(F)F)c3ccccc3n2)cc1 (stereo not drawn)
- EC50 [18]: 3.3 µM (active)
- EC50 (H4): 10 µM (active)
- EC50 (Streptokinase A): > 150 µM (not active)
- EC50 [16]: 3.4 µM (active)
- EC50 [17]: > 60 µM (not active)
- EC50 (Streptococcus): 4.31 µM (active)
- AC50 [6]: 4.37 µM (active)
- AC50 [13]: 4.06 µM (active)

Structure (SMILES): C[C@@H]1CCC[C@H](C)N1
- AC50 (Cytochrome P450 2C19): inconclusive
- AC50 (Cytochrome P450 2C9): inconclusive

Structure (SMILES): O=C1CCCN1CCC1CCN(C2CC(=O)N(c3ccc(Cl)cc3)C2=O)CC1 (stereo not drawn)
- AC50 [13]: 7.56 µM (active)

Structure (SMILES): O=C(c1cnn(-c2ccccc2)c1)c1ccc2ccccc2c1O
- AC50 (Cytochrome P450 2D6): 7.08 µM (inconclusive)
- AC50 (Cytochrome P450 3A4): 17.8 µM (inconclusive)
- AC50 (Cytochrome P450 2C9): inconclusive

Structure (SMILES): Cn1c(N2CCN(C(=O)Nc3ccc(F)cc3)CC2)nc2ccccc21
- EC50 [12]: 6.68 µM (active)

Structure (SMILES): CCOC(=O)C1=C(N)N=C(N)C1=Nc1ccc(OC)cc1
- CC50 (Vero): 11.1 µM (active)

Structure (SMILES): C=C1CCCC(C)(C)[C@@H]1CC/C(C)=C/Cn1c2cccc(=O)c-2nc2ccccc21
- GI50 (P388/ADR): 0.229 µM (active)
- GI50 (SN12K1): 1.48 µM (inactive)
- GI50 (P388): 0.569 µM (active)

Structure (SMILES): CCCCCCCCCCCC1CCCC(C)N1 (stereo not drawn)
- GI50 (P388/ADR): 12.4 µM (inactive)
- GI50 (SN12K1): 28.3 µM (inactive)
- GI50 (P388): 10.5 µM (inactive)

Structure (SMILES): C[C@@]12CC[C@H]3[C@@H]4CCC(=O)N[C@@]4(C)CC[C@@H]3[C@@]1(C)CC[C@H](OC(=O)Cc1ccc(N(CCCl)CCCl)cc1)C2
- GI50 (P388/ADR): 14.7 µM (inactive)
- GI50 (SN12K1): 16.9 µM (inactive)
- GI50 (P388): 10.6 µM (inactive)

Structure (SMILES): Cc1cc(-c2ccc(/N=N/c3ccc4c(S(=O)(=O)O)cc(S(=O)(=O)O)c(N)c4c3O)c(C)c2)ccc1/N=N/c1ccc2c(S(=O)(=O)O)cc(S(=O)(=O)O)c(N)c2c1O
- GI50 (P388/ADR): > 100 µM (inactive)
- GI50 (SN12K1): > 100 µM (inactive)
- GI50 (P388): > 100 µM (inactive)

Structure (SMILES): CC(/C=N/NC(=O)c1[nH]nc2c1CCC2)=C\c1ccccc1
- EC50 (BJ [19]): 0.346 µM (inconclusive)
- EC50 (BJ [20]): 25.5 µM (inconclusive)
- EC50 (BJ [21]): 1.03 µM (inconclusive)
- EC50 [22]: 0.43 µM (active)
- CC50 (Vero): < 0.05 µM (active)

Structure (SMILES): O=c1n(CC2CO2)c(=O)n(CC2CO2)c(=O)n1CC1CO1 (stereo not drawn) [TEROXIRONE]
- GI50 (P388/ADR): 1.91 µM (inactive)
- GI50 (SN12K1): 35.6 µM (inactive)
- GI50 (P388): 1.61 µM (inactive)
